From ChEMBL document CHEMBL2375237, “Optimization of allosteric MEK inhibitors. Part 1: Venturing into underexplored SAR territories” (Bioorg Med Chem Lett, 2013)
Calls of active or inactive are those of the source. No cut-off for these calls is given here.

Tests used:
HCT-116 [1] = assay: Antiproliferative activity against human HCT116 cells expressing KRAS G13D mutant; format: functional, cell-based
A-375 = assay: cells; settings: Homo sapiens, A-375, 72 h
Description: Antiproliferative activity against human A375 cells expressing BRAF V600E mutant after 72 hrs by Cell titer-glo assay

[2] = biological target: Dual specificity mitogen-activated protein kinase kinase 1 (Homo sapiens, UniProt Q02750); assay: Inhibition of MEK1 (unknown origin) after 2 hrs by fluorescence assay
Chain of Dual specificity mitogen-activated protein kinase kinase 1 (Q02750 whole entry): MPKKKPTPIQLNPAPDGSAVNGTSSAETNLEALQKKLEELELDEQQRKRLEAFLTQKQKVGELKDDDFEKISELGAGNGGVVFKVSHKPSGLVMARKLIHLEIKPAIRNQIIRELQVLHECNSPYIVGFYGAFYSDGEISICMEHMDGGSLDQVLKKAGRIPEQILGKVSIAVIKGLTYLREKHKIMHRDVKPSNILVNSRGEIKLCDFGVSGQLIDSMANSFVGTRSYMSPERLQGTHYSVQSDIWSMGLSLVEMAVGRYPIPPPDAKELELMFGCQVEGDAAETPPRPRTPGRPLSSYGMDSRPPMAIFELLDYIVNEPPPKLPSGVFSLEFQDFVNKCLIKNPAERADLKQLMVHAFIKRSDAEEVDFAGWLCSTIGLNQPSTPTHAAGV

[3] = Terminal half life in rat at 0.5 mg/kg, iv and 1 mg/kg, po; format: ADME, organism-based; settings: in vivo, read-out: beta t1/2 (converted)
[4] = Oral bioavailability in rat at 1 mg/kg; format: ADME, organism-based; settings: in vivo
A549 [5] = settings: Homo sapiens
Description: Antitumor activity against human A549 cells xenografted in nude mouse assessed as tumor growth inhibition at 3 mg/kg, po qd

[6] = Blood clearance in rat at 0.5 mg/kg, iv and 1 mg/kg, po; format: ADME, organism-based; settings: whole blood
[7] = Volume of distribution at steady state in rat at 0.5 mg/kg, iv and 1 mg/kg, po; format: ADME, organism-based; settings: in vivo, read-out: Vdss
[8] = Blood clearance in rat at 0.5 mg/kg, iv and 5 mg/kg, po; format: ADME, organism-based; settings: whole blood
A549 [9] = assay: Antiproliferative activity against human A549 cells; format: functional, cell-based
LoVo = assay: Antiproliferative activity against human LoVo cells; format: functional, cell-based
[10] = Oral bioavailability in rat at 5 mg/kg; format: ADME, organism-based; settings: in vivo
MIA PaCa-2 = assay: Antiproliferative activity against human MIAPaCa2 cells; format: functional, cell-based
[11] = Volume of distribution at steady state in rat at 0.5 mg/kg, iv and 5 mg/kg, po; format: ADME, organism-based; settings: in vivo, read-out: Vdss
[12] = Terminal half life in rat at 0.5 mg/kg, iv and 5 mg/kg, po; format: ADME, organism-based; settings: in vivo, read-out: beta t1/2 (converted)
[13] = Ratio of AUC in mouse brain to AUC in mouse plasma at 5 mg/kg, iv up to 3 hrs; format: ADME, organism-based; set-up: dose 5 mg/kg, route intravenous; settings: read-out: Ratio AUC
[14] = Drug metabolism in liver microsomes (unknown origin) assessed as demethylation of the sulfamide moiety; format: ADME, Microsome
[15] = Oral bioavailability in rat; format: ADME, organism-based; settings: in vivo
[16] = Drug metabolism in hepatocytes (unknown origin) assessed as demethylation of the sulfamide moiety; format: ADME, cell-based, Hepatocyte
[17] = Blood clearance in rat at 1 mg/kg, iv; format: ADME, organism-based; set-up: dose 1 mg/kg, route intravenous; settings: whole blood
[18] = Terminal half life in rat at 1 mg/kg, iv; format: ADME, organism-based; set-up: dose 1 mg/kg, route intravenous; settings: in vivo, read-out: beta t1/2 (converted)
HCT-116 [19] = assay: Ratio of AZD6244 IC50 to compound IC50 for human HCT116 cells expressing KRAS G13D mutant; format: functional
[20] = Volume of distribution at steady state in rat at 1 mg/kg, iv and 1 mg/kg, po; format: ADME, organism-based; settings: in vivo, read-out: Vdss
A549 [21] = settings: Homo sapiens; remark: listed apart in the source
Description: Antitumor activity against human A549 cells xenografted in nude mouse assessed as tumor growth inhibition at 1 mg/kg, po administered every other day

[22] = Blood clearance in rat at 1 mg/kg, iv and 1 mg/kg, po; format: ADME, organism-based; settings: whole blood
[23] = Terminal half life in mouse; format: ADME, organism-based; settings: in vivo, read-out: beta t1/2 (converted)
[24] = Terminal half life in rat at 1 mg/kg, iv and 1 mg/kg, po; format: ADME, organism-based; settings: in vivo, read-out: beta t1/2 (converted)
[25] = Terminal half life in dog; format: ADME, organism-based, Canis lupus familiaris; settings: in vivo, read-out: beta t1/2 (converted)
A549 [26] = settings: Homo sapiens; remark: listed apart in the source
Description: Antitumor activity against human A549 cells xenografted in nude mouse assessed as tumor growth inhibition at 1 mg/kg, po qd

Caco-2 = assay: Efflux ratio of permeability in human Caco2 cells relative to control; format: ADME, cell-based
[27] = Oral bioavailability in rat at 0.6 mg/kg; format: ADME, organism-based; settings: in vivo
[28] = Blood clearance in rat at 0.3 mg/kg, iv and 0.6 mg/kg, po; format: ADME, organism-based; settings: whole blood
[29] = Terminal half life in rat at 0.3 mg/kg, iv and 0.6 mg/kg, po; format: ADME, organism-based; settings: in vivo, read-out: beta t1/2 (converted)
[30] = Volume of distribution at steady state in rat at 0.3 mg/kg, iv and 0.6 mg/kg, po; format: ADME, organism-based; settings: in vivo, read-out: Vdss

Row | Structure (SMILES) | IC50 (HCT-116 [1]) [nM] | IC50 (A-375) [nM] | IC50 [2] [nM] | further results
1 | NC(=O)c1c(Nc2ccc(I)cc2F)cc(F)cc1Oc1ccc2oc(=O)[nH]c2c1 | 4510 | 35 | 36 | –
2 | CC(C)S(=O)(=O)Nc1cccc(Oc2cc(F)cc(Nc3ccc(I)cc3F)c2C(N)=O)c1 | 459 | 17 | 18 | –
3 | O=C(NOC[C@H](O)CO)c1ccc(F)c(F)c1Nc1ccc(I)cc1F [MIRDAMETINIB] | – | – | – | half-life [3]: 5.4 h; bioavailability [4]: 104%; TGI (A549 [5]): Active; clearance [6]: 8.33 mL/min/kg; Vd [7]: 1.7 L/kg
4 | NC(=O)c1c(Nc2ccc(I)cc2F)cc(F)cc1Oc1ccc2cn[nH]c2c1 | – | 221 | 54 | –
5 | NC(=O)c1c(Nc2ccc(I)cc2F)cc(F)cc1Oc1cccnc1 | 4180 | 141 | 76 | –
6 | CCS(=O)(=O)N1CCC[C@H]1COc1cc(F)cc(Nc2ccc(I)cc2F)c1C(N)=O | – | 323 | – | –
7 | CNS(=O)(=O)Nc1cccc(Oc2cc(F)cc(Nc3ccc(I)cc3F)c2C(N)=O)c1 | 103 | 16 | – | –
8 | CN1CCC[C@H]1COc1cc(F)cc(Nc2ccc(I)cc2F)c1C(N)=O | – | 973 | – | –
9 | CC(=O)Nc1ccc(Oc2cc(F)cc(Nc3ccc(I)cc3F)c2C(N)=O)cc1 | – | 808 | 539 | –
10 | Cn1cnc2c(F)c(Nc3ccc(Br)cc3Cl)c(C(=O)NOCCO)cc21 [SELUMETINIB] | 3100 | 31 | – | clearance [8]: 1 mL/min/kg; IC50 (A549 [9]): 1750 nM; IC50 (LoVo): 2830 nM; bioavailability [10]: 14%; IC50 (MIA PaCa-2): 142 nM; Vd [11]: 0.2 L/kg; half-life [12]: 3.8 h; Kp at 3 h [13]: < 0.02
11 | CC(=O)Nc1cccc(Oc2cc(F)cc(Nc3ccc(I)cc3F)c2C(N)=O)c1 | 2290 | 50 | – | –
12 | CS(=O)(=O)Nc1cccc(Oc2cc(F)cc(Nc3ccc(I)cc3F)c2C(N)=O)c1 | 3800 | 23 | 21 | –
13 | CN(C)S(=O)(=O)Nc1cccc(Oc2cc(F)cc(Nc3ccc(I)cc3F)c2C(N)=O)c1 | 155 | 18 | 21 | Drug metabolism [14]: Active; bioavailability [15]: 55%; Drug metabolism [16]: Active; clearance [17]: 35 mL/min/kg; half-life [18]: 2.2 h
14 | NC(=O)c1c(Nc2ccc(I)cc2F)cc(F)cc1OC[C@@H]1CCCN1 | 3030 | 124 | 26 | –
15 | NC(=O)c1c(Nc2ccc(I)cc2F)cc(F)cc1OCC[C@@H](O)Cn1cccn1 | 2070 | 151 | 13 | –
16 | COc1cc(F)cc(Nc2ccc(I)cc2F)c1C(N)=O | – | 354 | 74 | –
17 | NC(=O)c1c(Nc2ccc(I)cc2F)cc(F)cc1Oc1cccc(CS(N)(=O)=O)c1 | 3490 | 37 | 32 | –
18 | CN(C)S(=O)(=O)N1CCC[C@H]1COc1cc(F)cc(Nc2ccc(I)cc2F)c1C(N)=O | – | 1120 | 1000 | –
19 | NC(=O)c1c(Nc2ccc(I)cc2F)cc(F)cc1Oc1ccccc1 | – | 408 | 99 | –
20 | CCS(=O)(=O)Nc1cccc(Oc2cc(F)cc(Nc3ccc(I)cc3F)c2C(N)=O)c1 | 287 | < 30 | 15 | –
21 | NC(=O)c1c(Nc2ccc(I)cc2F)cc(F)cc1OCC[C@H](O)CO | – | 240 | – | –
22 | NC(=O)c1c(Nc2ccc(I)cc2F)cc(F)cc1Oc1cccc(NS(N)(=O)=O)c1 | 180 | 4 | 14 | bioavailability [4]: 62%; Ratio IC50 (HCT-116 [19]): >=10; Vd [20]: 2 L/kg; TGI (A549 [21]): Active; clearance [22]: 0.5 mL/min/kg; half-life [23]: 34 h; IC50 (A549 [9]): 132 nM; half-life [24]: 32 h; IC50 (LoVo): 175 nM; IC50 (MIA PaCa-2): 23 nM; half-life [25]: 110 h; TGI (A549 [26]): Active; Kp at 3 h [13]: < 0.02
23 | NC(=O)c1c(Nc2ccc(I)cc2F)cc(F)cc1OC[C@@H]1CCCN1S(N)(=O)=O | 3040 | 172 | 73 | –
24 | CC(C)(O)C(O)CCOc1cc(F)cc(Nc2ccc(I)cc2F)c1C(N)=O (stereo unspecified) | 2450 | 40 | 43 | –
25 | NC(=O)c1c(Nc2ccc(I)cc2F)cc(F)cc1OC[C@H](O)CCO | – | 350 | 63 | –
26 | NC(=O)c1c(Nc2ccc(I)cc2F)cc(F)cc1OCC[C@@H](O)Cn1ccnc1 | 1250 | 98 | 16 | fold change (FC) (Caco-2): 10; bioavailability [27]: 20%; clearance [28]: 9.67 mL/min/kg; half-life [29]: 8.4 h; Kp at 3 h [13]: 0.04; Vd [30]: 10.3 L/kg
27 | NC(=O)c1c(Nc2ccc(I)cc2F)cc(F)cc1Oc1cccc(NS(=O)(=O)N2CCCC2)c1 | 412 | 28 | 21 | –
28 | CC(C)C(=O)Nc1cccc(Oc2cc(F)cc(Nc3ccc(I)cc3F)c2C(N)=O)c1 | 8810 | 192 | 48 | –
29 | NC(=O)c1c(Nc2ccc(I)cc2F)cc(F)cc1OCC[C@@H](O)CO | 3400 | 148 | – | half-life [3]: 2.4 h; bioavailability [4]: 70%; clearance [6]: 24.8 mL/min/kg; Kp at 3 h [13]: 0.73; Vd [7]: 4.4 L/kg
30 | CC(O)(CO)CCOc1cc(F)cc(Nc2ccc(I)cc2F)c1C(N)=O (stereo unspecified) | – | 240 | – | –
